Results as given in publication PMC8659243, “Design, Synthesis and Tumour-Selective Toxicity of Novel 1-[3-{3,5-Bis(benzylidene)-4-oxo-1-piperidino}-3-oxopropyl]-4-piperidone Oximes and Related Quaternary Ammonium Salts” (Molecules, 2021).
Read-outs that look alike come from different tables or passages of the source.

What was measured:
[1] = system: COLO 205, HCC2998, HCT-15, KM12 and SW-620 cells; settings: read-out: average IC50 against COLO 205, HCC2998, HCT-15, KM12 and SW-620 cells; cited from earlier work
[2] = Average over HGF, HPLF and HPC non-malignant cells; format: cell-based; settings: human, HPLF and HPC non-malignant cells (average of the three)
Outline: (§1)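 Oral squamous carcinoma lines and normal oral cells (gingival fibroblast, periodontal ligament fibroblast, pulp) were exposed to various compound concentrations in DMEM with 10% heat-inactivated FBS at 37 °C for 48 h. Viability was read by MTT.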

[3] = system: CEM T-lymphoblastic leukemia cells; assay: Cytotoxicity against CEM cells, MTT method, 24 h; format: cell-based; settings: Homo sapiens, CCRF-CEM, concentration required to inhibit cell growth by 50%
Procedure: The method used for the evaluation of various compounds against human CEM cells has been reported previously. In brief, cells were grown in RPMI-1640 medium supplemented with 10% heat-inactivated fetal bovine serum. Different concentrations of compounds were added to the media, and after 24 h incubation, cytotoxicity was measured by the MTT method.

[4] = Cytotoxicity against non-malignant HPLF cells, MTT method, 48 h; format: cell-based; settings: human, periodontal ligament fibroblasts (HPLF)
Outline: as §1

[5] = system: Ca9-22 cells; assay: Cytotoxicity against Ca9-22 cells, MTT method, 48 h; format: cell-based, human; settings: for CC50: Homo sapiens, read-out: CC50 Ca9-22; for SI Ca9-22: average CC50 towards HGF, HPLF, HPC divided by CC50 against Ca9-22
Outline: as §1

[6] = system: CEM cells; assay: Effect on mitochondrial membrane potential, JC-1 dye, flow cytometry; format: cell-based, human; settings: CC50 and twice CC50 concentrations, 8 h
Procedure: The effect of 4b,c on the mitochondrial membrane potential of CEM cells was determined using a literature method. In brief, the cells were incubated with the compounds for 8 h. The neoplasms were then stained with the JC-1 dye and the results were obtained using flow cytometry.

[7] = system: Ca9-22, HSC-2 and HSC-4 cells; assay: Average over Ca9-22, HSC-2 and HSC-4 neoplastic cells; format: cell-based, human; settings: for CC50: Homo sapiens, read-out: Average CC50
Outline: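 Compounds applied at various concentrations to human oral squamous carcinoma lines in DMEM with 10% heat-inactivated FBS for 48 h at 37 °C; viability read by MTT. Values are averaged across the three tumour lines.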

[8] = system: HSC-4 cells; assay: Cytotoxicity against HSC-4 cells, MTT method, 48 h; format: cell-based, human; settings: for CC50: Homo sapiens, read-out: CC50 HSC-4; for SI HSC-4: average CC50 towards HGF, HPLF, HPC divided by CC50 against HSC-4
Outline: as §1

[9] = Cytotoxicity against non-malignant HPC cells, MTT method, 48 h; format: cell-based; settings: human, pulp cells (HPC)
Outline: as §1

[10] = system: HSC-2 cells; assay: Cytotoxicity against HSC-2 cells, MTT method, 48 h; format: cell-based, human; settings: for CC50: Homo sapiens, HSC-2, concentration required to kill 50% of the cells, 48 h, MTT; for SI HSC-2: average CC50 towards HGF, HPLF, HPC divided by CC50 against HSC-2
Outline: as §1

[11] = Cytotoxicity against non-malignant HGF cells, MTT method, 48 h; format: cell-based; settings: human, gingival fibroblasts (HGF)
Outline: as §1

[12] = system: Ca9-22 cells; assay: Cell cycle analysis and morphological changes in Ca9-22 cells; format: cell-based, human; settings: 24 h
Procedure: Treated and untreated Ca9-22 cells (approximately 10^6 cells) were harvested, fixed with 1% paraformaldehyde, treated with 0.2 mg/mL RNase A (preheated for 10 min at 100 °C to inactivate DNase), stained for 15 min with 0.01% propidium iodide in the presence of 0.01% NP-40 to prevent cell aggregation, filtered through Falcon® cell strainers ([…]) (Corning, NY, USA), subjected to cell sorting (SH800 Series; SONY Imaging Products and Solutions Inc., Kanagawa, Japan) and then analyzed with Cell Sorter Software version 2.1.2. (SONY Imaging Products and Solutions Inc., Kanagawa, Japan), as described previously.

[13] = system: HL-60 (TB), K-562, RPMI-8226 and SR cells; parameters: method as in PMID 24657568; settings: read-out: average IC50 against HL-60 (TB), K-562, RPMI-8226 and SR cells; cited from earlier work
[14] = Ca9-22, concentration required to kill 50% of the cells, 48 h, MTT
[15] = average of Ca9-22, HSC-2 and HSC-4
[16] = HSC-4, concentration required to kill 50% of the cells, 48 h, MTT

Structure (SMILES)	IC50 [1] [µM]	CC50 at 48 h [2] [µM]	IC50 [3] [µM]	CC50 at 48 h [4] [µM]	CC50 [5, 14] [µM]	SI Ca9-22 [5]	effect on the mitochondrial membrane potential (MMP) [6]	CC50 [7, 15] [µM]	Average SI ([7]; average of SI for Ca9-22, HSC-2 and HSC-4)	CC50 [8, 16] [µM]	SI HSC-4 [8]	CC50 at 48 h [9] [µM]	CC50 [10] [µM]	SI HSC-2 [10]	CC50 at 48 h [11] [µM]	morphological change and cell cycle effect [12]	CC50 ([5]; Ca9-22, 48 h) [µM]	IC50 [13] [µM]	CC50 [7] [µM]	CC50 ([8]; HSC-4, 48 h) [µM]
O=c1[nH]cc(F)c(=O)[nH]1 [5-fluorouracil]	8.46	–	–	–	–	–	–	–	–	–	–	–	–	–	–	–	–	–	–	–
C[N+]1(CCC(=O)N2C/C(=C\c3ccc(F)cc3)C(=O)/C(=C/c3ccc(F)cc3)C2)CCC(=NO)CC1 (stereo not drawn) [Compound 4b, (3~{E},5~{E})-3,5-bis[(4-fluorophenyl)methylene]-1-[3-(4-hydroximino-1-piperidyl)propanoyl]piperidin-4-one methiodide]	–	8.31	1.05 ± 0.38	9.13 ± 0.48	0.29 ± 0.23	28.7	interfered with the MMP	0.31	29.4	0.21 ± 0.01	39.6	11.3 ± 2.59	0.42 ± 0.14	19.8	4.5 ± 1.39	–	–	–	–	–
C[N+]1(CCC(=O)N2C/C(=C\c3ccc(Cl)cc3)C(=O)/C(=C/c3ccc(Cl)cc3)C2)CCC(=NO)CC1 (stereo not drawn) [Compound 4c, (3~{E},5~{E})-3,5-bis[(4-chlorophenyl)methylene]-1-[3-(4-hydroximino-1-piperidyl)propanoyl]piperidin-4-one methiodide]	–	4.04	4.96 ± 0.28	4.17 ± 1.44	0.02 ± 0.01	202	interfered with the MMP	0.06	–	0.09 ± 0.03	44.9	6.3 ± 0.7	0.06 ± 0.01	67.3	1.65 ± 0.17	–	–	–	–	–
C[N+]1(CCC(=O)N2C/C(=C\c3ccc(Cl)c(Cl)c3)C(=O)/C(=C/c3ccc(Cl)c(Cl)c3)C2)CCC(=NO)CC1 (stereo not drawn) [Compound 4d, (3~{E},5~{E})-3,5-bis[(3,4-dichlorophenyl)methylene]-1-[3-(4-hydroximino-1-piperidyl)propanoyl]piperidin-4-one methiodide]	–	2.36	5.19 ± 0.66	2.12 ± 0.2	0.01	236	–	0.02	–	0.03	78.7	3.81 ± 0.02	0.03	78.7	1.15 ± 0.41	induced cell spreading due to G2/M cell accumulation without the induction of a subG1 population	–	–	–	–
N[C@@H](Cc1ccc(N(CCCl)CCCl)cc1)C(=O)O [Melphalan, reference compound]	–	–	–	195 ± 4.04	–	–	–	–	–	–	–	> 200	–	–	157 ± 38.2	–	48.5 ± 1.33	56.7	26.7	17.4 ± 0.88
